Patent US11472803B2, “7-substituted 1-aryl-naphthyridine-3-carboxylic acid amides and use thereof” (Bayer Aktiengesellschaft, priority 2016, dated 2022)

Target: T1, human M2 receptor (Homo sapiens, UniProt P08172)
T1 construct: expressed in transfected cells; host or cells: CHO-DUKX (CHO-DUKX-M2-GIRK)
T1 sequence (P08172 1-466): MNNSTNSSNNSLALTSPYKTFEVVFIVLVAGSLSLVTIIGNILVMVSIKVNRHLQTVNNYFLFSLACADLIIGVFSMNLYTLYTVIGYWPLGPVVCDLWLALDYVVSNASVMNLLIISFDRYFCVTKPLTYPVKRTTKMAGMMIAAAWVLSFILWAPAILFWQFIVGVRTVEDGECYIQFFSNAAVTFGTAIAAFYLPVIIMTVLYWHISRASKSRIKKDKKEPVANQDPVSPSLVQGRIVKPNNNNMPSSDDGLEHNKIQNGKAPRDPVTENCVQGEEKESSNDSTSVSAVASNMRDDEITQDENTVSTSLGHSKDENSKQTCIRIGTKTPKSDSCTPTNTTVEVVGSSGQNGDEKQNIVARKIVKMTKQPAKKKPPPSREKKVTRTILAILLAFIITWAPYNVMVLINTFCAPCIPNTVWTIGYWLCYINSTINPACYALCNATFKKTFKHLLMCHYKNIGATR
Assay: Functional M2-GIRK1/4 activation test: allosteric potency (EC50) and efficiency at EC20 acetylcholine
Type: cell-based
Details: CHO-DUKX-M2-GIRK cells; for EC50: voltage-sensitive dye, acetylcholine at EC20, in some cases mean of two or more determinations
Excerpt: The binding of orthosteric agonists (endogenous ligand: acetylcholine) to the M2 receptor leads to receptor activation or a change in conformation of the receptor in the manner of a shift in equilibrium in favour of the active receptor conformation.
The agonist-induced change in conformation of the M2 receptor results in a Gαi protein activation. […] Under physiological conditions, the result is then a selective efflux of potassium from the cell along the electrochemical gradient. […] The extent of hyperpolarization can therefore be regarded as a measure of the activation of the M2 receptor.
The test cell used is a recombinant CHO-DUKX cell line which has been stably transfected with cDNA coding for the human M2 receptor and with cDNA coding for both GIRK1/4 subunits (CHO-DUKX-M2-GIRK). The transmembrane potential, or the relative changes in the transmembrane potential as a function of substance addition or M2 activation, is determined by means of a voltage-sensitive dye (FLIPR Membrane Potential Assay Kit Blue, Molecular Devices #R8034) and the measurement of cell fluorescence using a proprietary fluorescence imaging instrument.
The sowing medium consisted of MEM alpha medium (supplemented with 5% PCS, 2% Glutamax, no genticin).
For the particular measurement, the medium was removed and the cells were laden with the volt-age-sensitive dye for at least 6 min at room temperature (30 μl of loading buffer per 384-well). This was followed, in a first measurement, by the determination of the fluorescence for the resting transmembrane potential for a period of 5 sec. Thereafter, 10 μl in each case of the test substances diluted in loading buffer were added, followed by a second measurement to determine the transmembrane potential for a period of 50 sec in 1 sec increments. Finally, the cells were admixed with 10 μl of agonist solution (acetylcholine dissolved in loading buffer). Acetylcholine was used at the concentration corresponding to the EC20, which had been determined in a preliminary test. The M2-mediated GIRK1/4 activation or hyperpolarization was then monitored in a third measurement over a period of 60 sec. The EC50 value (degree of allosteric potency of test compound) and the efficiency (measure of the boosting of the acetylcholine effect at an EC20 acetylcholine concentration) were determined with the aid of a 4-parameter logistic function (Hill function).

[1] = boosting of the acetylcholine effect at EC20 acetylcholine concentration

SMILES | EC50 [nM] | Emax [1] [%] | Efficiency [1] [%]
O=C(NCC(F)(F)F)c1cn(-c2c(F)cc(F)cc2F)c2nc(N3C[C@@H](O)[C@H](O)C3)c(F)cc2c1=O [Example 220, 7-[(3R,4R)-3,4-dihydroxypyrrolidin-1-yl]-6-fluoro-4-oxo-N-(2,2,2-trifluoroethyl)-1-(2,4,6-trifluorophenyl)-1,4-dihydro-1,8-naphthyridine-3-carboxamide] | 80 | 85 | 
CC(C)(CC(F)(F)F)NC(=O)c1cn(-c2c(F)cc(F)cc2F)c2nc(N3CC[C@H](O)C3)c(F)cc2c1=O [Example 107, 6-Fluoro-7-[(3S)-3-hydroxypyrrolidin-1-yl]-4-oxo-N-(4,4,4-trifluoro-2-methylbutan-2-yl)-1-(2,4,6-trifluorophenyl)-1,4-dihydro-1,8-naphthyridine-3-carboxamide] | 3.55 | 92 | 
CC(NC(=O)c1cn(-c2c(F)cc(F)cc2F)c2nc(N3CCC4(C3)NC(=O)N(C)C4=O)c(F)cc2c1=O)C(F)(F)C(F)(F)F (stereo not shown) [Example 234, 6-Fluoro-7-(3-methyl-2,4-dioxo-1,3,7-triazaspiro[4.4]non-7-yl)-4-oxo-N-[3,3,4,4,4-pentafluorobutan-2-yl]-1-(2,4,6-trifluorophenyl)-1,4-dihydro-1,8-naphthyridine-3-carboxamide] | 9.7 | 90 | 
O=C(N[C@@H](C1CC1)C(F)(F)F)c1cn(-c2c(F)cc(F)cc2F)c2nc(N3CCOCC3)c(F)cc2c1=O [Example 147, N-[(1S)-Cyclopropyl-2,2,2-trifluoroethyl]-6-fluoro-7-(morpholin-4-yl)-4-oxo-1-(2,4,6-trifluorophenyl)-1,4-dihydro-1,8-naphthyridine-3-carboxamide] | 16 | 94 | 
CC(NC(=O)c1cn(-c2c(F)cc(F)cc2F)c2nc(N3CCNCC(O)C3)c(F)cc2c1=O)C(F)(F)C(F)(F)F (stereo not shown) [Example 200, 6-Fluoro-7-[6-hydroxy-1,4-diazepan-1-yl]-4-oxo-N-[3,3,4,4,4-pentafluorobutan-2-yl]-1-(2,4,6-trifluorophenyl)-1,4-dihydro-1,8-naphthyridine-3-carboxamide] | 120 | 73 | 
CC(C)(NC(=O)c1cn(-c2c(F)cc(F)cc2F)c2nc(N3CC4(COC4)C3)c(F)cc2c1=O)C(F)(F)C(F)(F)F (racemic) [Example 163, 6-Fluoro-7-(2-oxa-6-azaspiro[3.3]hept-6-yl)-4-oxo-N-(3,3,4,4,4-pentafluoro-2-methylbutan-2-yl)-1-(2,4,6-trifluorophenyl)-1,4-dihydro-1,8-naphthyridine-3-carboxamide] | 25 | 93 | 
O=C(NC12CC(C1)C2)c1cn(-c2c(F)cccc2F)c2nc(N3C[C@@H](O)[C@H](O)C3)c(F)cc2c1=O [Example 5, N-(Bicyclo[1.1.1]pent-1-yl)-1-(2,6-difluorophenyl)-7-[(3R,4R)-3,4-dihydroxypyrrolidin-1-yl]-6-fluoro-4-oxo-1,4-dihydro-1,8-naphthyridine-3-carboxamide] | 69 | 99 | 
CC(C)C(NC(=O)c1cn(-c2c(F)cc(F)cc2F)c2nc(N3C[C@@H](O)[C@@H](O)C3)c(F)cc2c1=O)C(F)(F)F (single isomer, unassigned) [Example 137] | 3.3 | 91 | 
CC(NC(=O)c1cn(-c2ncc(F)cc2F)c2nc(N3CC[C@H](O)C3)c(F)cc2c1=O)C(F)(F)C(F)(F)F (single isomer, unassigned) [Example 128] | 9.8 | 90 | 
C[C@@H](NC(=O)c1cn(-c2c(F)cc(F)cc2F)c2nc(N3C[C@@H](O)[C@H](O)C3)c(F)cc2c1=O)C1CC1 [Example 19, N-[(1R)-1-cyclopropylethyl]-7-[(3R,4R)-3,4-dihydroxypyrrolidin-1-yl]-6-fluoro-4-oxo-1-(2,4,6-trifluorophenyl)-1,4-dihydro-1,8-naphthyridine-3-carboxamide] | 16 | 98 | 
CC(C)(C)C(NC(=O)c1cn(-c2c(F)cc(F)cc2F)c2nc(N3CC(CO)(CO)C3)c(F)cc2c1=O)C(F)(F)C(F)(F)F (single isomer, unassigned) [Example 216, 7-[3,3-bis(hydroxymethyl)azetidin-1-yl]-6-fluoro-4-oxo-N-[1,1,1,2,2-pentafluoro-4,4-dimethylpentan-3-yl]-1-(2,4,6-trifluorophenyl)-1,4-dihydro-1,8-naphthyridine-3-carboxamide] | 1.5 |  | 99
CCC(CC)(CC)NC(=O)c1cn(-c2c(F)cc(F)cc2F)c2nc(N3C[C@@H](O)[C@@H](O)C3)c(F)cc2c1=O [Example 77, 7-[(3R,4S)-3,4-Dihydroxypyrrolidin-1-yl]-N-(3-ethylpentan-3-yl)-6-fluoro-4-oxo-1-(2,4,6-tri-fluorophenyl)-1,4-dihydro-1,8-naphthyridine-3-carboxamide] | 1.6 | 100 | 
CN1CCN(c2nc3c(cc2F)c(=O)c(C(=O)N[C@@H](C2CC2)C(F)(F)F)cn3-c2c(F)cc(F)cc2F)C(CO)C1 (stereo partly drawn) [Example 176, N-[(1S)-1-Cyclopropyl-2,2,2-trifluoroethyl]-6-fluoro-7-[2-(hydroxymethyl)-4-methylpiperazin-1-yl]-4-oxo-1-(2,4,6-trifluorophenyl)-1,4-dihydro-1,8-naphthyridine-3-carboxamide] | 110 | 91 | 
CC(C)C(NC(=O)c1cn(-c2c(F)cc(F)cc2F)c2nc(N3CC[C@H](O)C3)c(F)cc2c1=O)C(C)C [Example 122, N-(2,4-Dimethylpentan-3-yl)-6-fluoro-7-[(3S)-3-hydroxypyrrolidin-1-yl]-4-oxo-1-(2,4,6-tri-fluorophenyl)-1,4-dihydro-1,8-naphthyridine-3-carboxamide] | 3.55 | 100 | 
CC[C@H](NC(=O)c1cn(-c2c(F)cc(F)cc2F)c2nc(N3C[C@@H](O)[C@H](O)C3)c(Cl)cc2c1=O)C(F)(F)F [Example 38, 6-chloro-7-[(3R,4R)-3,4-dihydroxypyrrolidin-1-yl]-4-oxo-N-[(2S)-1,1,1-trifluorobutan-2-yl]-1-(2,4,6-trifluorophenyl)-1,4-dihydro-1,8-naphthyridine-3-carboxamide] | 10.1 | 100 | 
CCC(NC(=O)c1cn(-c2c(F)cc(F)cc2F)c2nc(N3C[C@@H](O)[C@H](O)C3)c(Br)cc2c1=O)C(F)(F)C(F)(F)F (mixture of isomers) [Example 157, 6-Bromo-7-[(3R,4R)-3,4-dihydroxypyrrolidin-1-yl]-4-oxo-N-[1,1,1,2,2-pentafluoropentan-3-yl]-1-(2,4,6-trifluorophenyl)-1,4-dihydro-1,8-naphthyridine-3-carboxamide] | 2.6 | 100 | 
CC(C)(NC(=O)c1cn(-c2c(F)cc(F)cc2F)c2nc(N3CCOCC3)c(F)cc2c1=O)C(F)F [Example 150, N-(1,1-Difluoro-2-methylpropan-2-yl)-6-fluoro-7-(morpholin-4-yl)-4-oxo-1-(2,4,6-trifluoro-phenyl)-1,4-dihydro-1,8-naphthyridine-3-carboxamide] | 24 | 93 | 
CC(C)C(COC(F)(F)F)NC(=O)c1cn(-c2c(F)cc(F)cc2F)c2nc(N3C[C@@H](O)[C@H](O)C3)c(F)cc2c1=O (mixture of isomers) [Example 233, 7-[(3R,4R)-3,4-dihydroxypyrrolidin-1-yl]-6-fluoro-N-[3-methyl-1-(trifluoromethoxy)butan-2-yl]-4-oxo-1-(2,4,6-trifluorophenyl)-1,4-dihydro-1,8-naphthyridine-3-carboxamide] | 2.3 | 100 | 
CC(NC(=O)c1cn(-c2c(F)cc(F)cc2F)c2nc(N3CC[C@H](O)C3)c(Br)cc2c1=O)C(F)(F)C(F)(F)F (single isomer, unassigned) [Example 232] | 7 | 100 | 
CC(C)C(NC(=O)c1cn(-c2c(F)cc(F)cc2F)c2nc(N3CC[C@H](O)C3)c(F)cc2c1=O)C(F)(F)F (single isomer, unassigned) [Example 139] | 3.4 | 100 | 
